Data on 21 compounds can be found in patent US20230192700A1, “PYRAZOLOPYRAZINES ACTING ON CANCERS VIA INHIBITION OF CDK12” (Bayer Aktiengesellschaft, priority 2020, published 2023).

Each structure is given as a SMILES string. Like-named read-outs stand apart in the source and are kept apart here.

In one test the target is T1, CYCLIN K (Homo sapiens, UniProt O75909).
T1 construct: endogenous in cells; host or cells: CAL-120 human breast cancer cells (DSMZ ACC 459)
The test is described as follows: CYCLIN K nuclear protein level: immunofluorescence/high content analysis in CAL-120 cells. It is filed as cell-based. The following applies: 24 h, nuclear CCNK staining intensity, median, read-out: CYCLIN K degradation IF, DC50- [mol/l] (median). The procedure:
7. CYCLIN K Nuclear Protein Level: Immunofluorescence/High Content Analysis
In the context of the present invention, the term “DC50 Cyclin K” refers to the DC50 values obtained according to the assay described in this section (7) herein below, i.e. the DC50 values for the degradation of Cyclin K.
CAL-120 human breast cancer cells (DSMZ ACC 459) are seeded in 1536-well microtiter plates (800 cells per well) containing 50 nanoL of compounds in Dose-Response. Control wells received DMSO or Reference Example 1. Plates are then incubated for 24 h at 37° C. in an humidified incubator and fixed with 4% PFA for 10 min. Then immunofluorescence (IF) against CYCLIN K (ThermoFisher Scientific CCNK Antibody # PA5-85020, rabbit, 1:200 dilution) is performed using standard IF protocols. Cells are then stained with Hoechst 33342 (Life Technologies, H-1399, 0.1 microg/mL) and imaged on an automated confocal microscopy system (e.g. Perkin Elmer Opera Phenix). Nuclear and cytoplasmic intensity as well as the nuclear/cytoplasmic intensity ratio is determined by automated image analysis using custom generated scripts (MetaXpress). Data is then transferred to Genedata Screener software, normalized to DMSO and control and DC50 values (degrading concentration to achieve 50% reduction of nuclear CCNK staining intensity relative to controls) are reported.

Test [1] deals with MDA-MB-231 human breast cancer cells. The test can be described thus: Proliferation assay MDA-MB-231 (crystal violet). It is filed as cell-based. The following applies: MDA-MB-231 cells, 4 days, median, read-out: Prolif-MDA MB231 IC50 - [mol/l] (median). The procedure:
4. Proliferation assay: MDA-MB-231, CAL-120
Human tumour cells were originally obtained from the American Type Culture Collection (ATCC), or from the Deutsche Sammlung von Mikroorganismen and Zellkulturen (DSMZ, German Collection of Microorganisms and Cell Cultures). Cultivated tumour cells (CAL-120, human breast adenocarcinoma cells, DSMZ ACC-459; MDA-M B-231, human breast cancer cells, ATCC HTB-26) were plated at a density of 4,000 cells/well in a 96-well multititer plate in 200 microL of their respective growth medium supplemented 10% fetal calf serum. After 24 hours, the cells of one plate (zero-point plate) were stained with crystal violet (see below), while the medium of the other plates was supplemented with the test substances in various concentrations (0 micromol/L, as well as in the range of 0.01-10 micromol/L; the final concentration of the solvent dimethyl sulfoxide was adjusted to 0.1%) using a Tecan HP D300 Digital Dispenser. The cells were incubated for 4 days in the presence of test substances. Cell proliferation was determined by staining the cells with crystal violet: the cells were fixed by adding 20 microL/measuring point of an 11% glutaric aldehyde solution for 15 minutes at room temperature. After three washing cycles of the fixed cells with water, the plates were dried at room temperature. The cells were stained by adding 100 microL/measuring point of a 0.1% crystal violet solution (pH 3.0). After three washing cycles of the stained cells with water, the plates were dried at room temperature. The dye was dissolved by adding 100 microL/measuring point of a 10% acetic acid solution. The extinction was determined by photometry at a wavelength of 595 nm. The change of cell number, in percent, was calculated by normalization of the measured values to the extinction values of the zero-point plate(=0%) and the extinction of the untreated (0 μM) cells(=100%). The IC50 values (inhibitory concentration at 50% of maximal effect) were determined by means of a 4 parameter fit.

T1 sequence (O75909 whole entry): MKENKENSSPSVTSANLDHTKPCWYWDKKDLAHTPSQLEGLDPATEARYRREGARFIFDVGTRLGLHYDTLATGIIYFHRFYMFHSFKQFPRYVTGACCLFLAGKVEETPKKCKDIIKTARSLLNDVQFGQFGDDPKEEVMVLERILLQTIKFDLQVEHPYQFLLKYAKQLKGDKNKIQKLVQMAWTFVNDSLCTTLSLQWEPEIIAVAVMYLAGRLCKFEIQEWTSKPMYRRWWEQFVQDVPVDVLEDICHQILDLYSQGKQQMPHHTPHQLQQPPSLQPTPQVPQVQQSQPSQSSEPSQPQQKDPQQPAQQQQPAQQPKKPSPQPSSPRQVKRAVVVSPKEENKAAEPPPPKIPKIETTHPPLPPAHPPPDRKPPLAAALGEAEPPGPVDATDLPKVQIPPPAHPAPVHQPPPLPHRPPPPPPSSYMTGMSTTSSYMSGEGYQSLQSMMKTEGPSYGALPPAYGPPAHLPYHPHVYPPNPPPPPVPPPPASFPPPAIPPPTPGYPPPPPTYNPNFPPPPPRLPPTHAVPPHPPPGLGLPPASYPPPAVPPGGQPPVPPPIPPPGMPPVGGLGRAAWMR
T1 sequence (Q9NYV4 whole entry partner): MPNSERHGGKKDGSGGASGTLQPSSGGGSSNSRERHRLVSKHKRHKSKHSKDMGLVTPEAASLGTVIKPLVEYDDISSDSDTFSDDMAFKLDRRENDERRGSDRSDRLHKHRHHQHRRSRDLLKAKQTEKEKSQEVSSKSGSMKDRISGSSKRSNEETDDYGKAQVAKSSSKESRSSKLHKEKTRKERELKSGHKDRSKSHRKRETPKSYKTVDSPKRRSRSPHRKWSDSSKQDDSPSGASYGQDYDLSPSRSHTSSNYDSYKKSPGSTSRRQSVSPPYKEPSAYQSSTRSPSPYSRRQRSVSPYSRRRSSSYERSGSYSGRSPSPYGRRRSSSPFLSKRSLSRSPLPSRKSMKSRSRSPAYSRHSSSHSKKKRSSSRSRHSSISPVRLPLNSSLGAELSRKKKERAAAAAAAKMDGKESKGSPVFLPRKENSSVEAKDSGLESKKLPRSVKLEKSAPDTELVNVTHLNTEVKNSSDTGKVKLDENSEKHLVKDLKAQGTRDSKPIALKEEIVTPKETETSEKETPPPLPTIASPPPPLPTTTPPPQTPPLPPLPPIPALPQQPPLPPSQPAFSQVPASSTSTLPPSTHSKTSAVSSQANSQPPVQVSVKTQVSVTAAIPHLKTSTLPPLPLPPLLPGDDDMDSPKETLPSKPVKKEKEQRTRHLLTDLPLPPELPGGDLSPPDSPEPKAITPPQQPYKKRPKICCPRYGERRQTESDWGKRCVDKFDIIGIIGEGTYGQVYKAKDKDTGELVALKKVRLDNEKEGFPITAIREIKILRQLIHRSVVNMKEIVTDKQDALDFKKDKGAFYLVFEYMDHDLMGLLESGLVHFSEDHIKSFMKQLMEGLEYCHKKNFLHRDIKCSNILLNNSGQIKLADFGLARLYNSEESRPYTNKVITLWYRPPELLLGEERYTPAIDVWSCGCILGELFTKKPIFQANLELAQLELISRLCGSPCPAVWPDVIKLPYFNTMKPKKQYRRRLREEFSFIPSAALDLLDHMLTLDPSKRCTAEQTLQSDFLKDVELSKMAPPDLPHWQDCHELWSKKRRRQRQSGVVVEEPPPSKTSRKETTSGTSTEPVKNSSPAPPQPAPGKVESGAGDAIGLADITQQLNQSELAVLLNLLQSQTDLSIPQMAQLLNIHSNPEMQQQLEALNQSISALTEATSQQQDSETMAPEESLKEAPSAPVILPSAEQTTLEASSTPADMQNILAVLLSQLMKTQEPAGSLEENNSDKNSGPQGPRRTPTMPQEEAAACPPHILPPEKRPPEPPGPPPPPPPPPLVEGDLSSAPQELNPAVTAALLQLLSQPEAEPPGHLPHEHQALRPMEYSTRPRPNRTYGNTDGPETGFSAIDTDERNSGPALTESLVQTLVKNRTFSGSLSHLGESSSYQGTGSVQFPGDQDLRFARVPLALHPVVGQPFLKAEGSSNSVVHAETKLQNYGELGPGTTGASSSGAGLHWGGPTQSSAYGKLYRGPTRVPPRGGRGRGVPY

As for `CC(C)(O)C1CC(n2nc(NCc3nc4ccccc4[nH]3)c3ncc(C4CC4)nc32)C1` (mixture of isomers) [Example 48, 2-[cis/trans-3-(3-{[(1H-benzimidazol-2-yl)methyl]amino}-6-cyclopropyl-1H-pyrazolo[3,4-b]pyrazin-1-yl)cyclobutyl]propan-2-ol], the DC50 on CYCLIN K is 11.3 nM. Also, in test [1] (Homo sapiens, MDA-MB-231, 96 h), the IC50 came to 66.1 nM.

On to `c1ccc2[nH]c(CNc3nn(C4CCOC4)c4nc(C5CC5)cnc34)nc2c1` (racemic) [Example 10, (±)-N-[(1H-benzimidazol-2-yl)methyl]-6-cyclopropyl-1-[oxolan-3-yl]-1H-pyrazolo[3,4-b]pyrazin-3-amine], for which the DC50 at CYCLIN K was found to be 159 nM. Moreover, in test [1] (Homo sapiens, MDA-MB-231, 96 h), the IC50 came to 151 nM. As to `CC1CC(n2nc(NCc3nc4ccccc4[nH]3)c3ncc(C4CC4)nc32)CCN1C` (racemic) [Example 41, (±)-cis/trans-N-[(1H-benzimidazol-2-yl)methyl]-6-cyclopropyl-1-(1,2-dimethylpiperidin-4-yl)-1H-pyrazolo[3,4-b]pyrazin-3-amine], the DC50 on CYCLIN K turned out to be 2.3 nM. For the same compound, the IC50 in test [1] (Homo sapiens, MDA-MB-231, 96 h) turned out to be 67.1 nM. Take `CC1COCCC1n1nc(NCc2nc3ccccc3[nH]2)c2ncc(C3CC3)nc21` (racemic) [Example 42, (±)-cis/trans-N-[(1H-benzimidazol-2-yl)methyl]-6-cyclopropyl-1-(3-methyloxan-4-yl)-1H-pyrazolo[3,4-b]pyrazin-3-amine]: on CYCLIN K, the DC50 stood at 17.2 nM. The IC50 in test [1] (Homo sapiens, MDA-MB-231, 96 h) came to 148 nM. The corresponding values for `CC1CC(n2nc(NCc3nc4ccccc4[nH]3)c3ncc(C4CC4)nc32)CCO1` (racemic) [Example 44, (±)-cis/trans-N-[(1H-benzimidazol-2-yl)methyl]-6-cyclopropyl-1-(2-methyloxan-4-yl)-1H-pyrazolo[3,4-b]pyrazin-3-amine] are 13.5 nM and 37.9 nM. `CN1CCCC(n2nc(NCc3nc4ccccc4[nH]3)c3ncc(C4CC4)nc32)CC1` (single isomer, unassigned) [Example 37, (+) or (−)-N-[(1H-benzimidazol-2-yl)methyl]-6-cyclopropyl-1-[(4R*)-1-methylazepan-4-yl]-1H-pyrazolo[3,4-b]pyrazin-3-amine]: the DC50 on CYCLIN K was determined as 1.72 nM. Also, in test [1], the IC50 came to 15.1 nM. With `COCCC(C)n1nc(NCc2nc3ccccc3[nH]2)c2ncc(C3CC3)nc21` (single isomer, unassigned; (+)) [Example 59, (+)-N-[(1H-benzimidazol-2-yl)methyl]-6-cyclopropyl-1-[4-methoxybutan-2-yl]-1H-pyrazolo[3,4-b]pyrazin-3-amine], the DC50 at CYCLIN K turned out to be 38.6 nM. Besides, the IC50 in test [1] was 816 nM. The matching figures for `COCCC(C)n1nc(NCc2nc3ccccc3[nH]2)c2ncc(C3CC3)nc21` (single isomer, unassigned; (-)) [Example 58, (−)-N-[(1H-benzimidazol-2-yl)methyl]-6-cyclopropyl-1-[4-methoxybutan-2-yl]-1H-pyrazolo[3,4-b]pyrazin-3-amine]: 15.6 nM and 213 nM. With `CN1CCC(n2nc(NCc3nc4ccccc4[nH]3)c3ncc(C4CC4)nc32)CC1` [Example 1, N-[(1H-benzimidazol-2-yl)methyl]-6-cyclopropyl-1-(1-methylpiperidin-4-yl)-1H-pyrazolo[3,4-b]pyrazin-3-amine], on CYCLIN K, the DC50 was 7.1 nM. Besides, the IC50 in test [1] (Homo sapiens, MDA-MB-231, 96 h) is 24.9 nM.

In the case of `COc1cccc2[nH]c(CNc3nn(C4CCN(C)CC4)c4nc(C5CC5)cnc34)nc12` [Example 2, 6-cyclopropyl-N-[(4-methoxy-1H-benzimidazol-2-yl)methyl]-1-(1-methylpiperidin-4-yl)-1H-pyrazolo[3,4-b]pyrazin-3-amine], the DC50 at CYCLIN K amounted to 0.704 nM. Besides, the IC50 in test [1] (Homo sapiens, MDA-MB-231, 96 h) was 10.8 nM.

In the case of `CN1CCC(n2nc(NCc3nc4c(F)cccc4[nH]3)c3ncc(C4CC4)nc32)CC1` [Example 3, 6-cyclopropyl-N-[(4-fluoro-1H-benzimidazol-2-yl)methyl]-1-(1-methylpiperidin-4-yl)-1H-pyrazolo[3,4-b]pyrazin-3-amine], the DC50 on CYCLIN K is 1.15 nM. Besides, in test [1] (Homo sapiens, MDA-MB-231, 96 h), the IC50 is 3.73 nM. In the case of `CN1CCC(n2nc(NCc3nc4cc(F)ccc4[nH]3)c3ncc(C4CC4)nc32)CC1` [Example 4, 6-cyclopropyl-N-[(5-fluoro-1H-benzimidazol-2-yl)methyl]-1-(1-methylpiperidin-4-yl)-1H-pyrazolo[3,4-b]pyrazin-3-amine], at CYCLIN K, the DC50 amounted to 0.914 nM. Moreover, in test [1] (Homo sapiens, MDA-MB-231, 96 h), the IC50 worked out at 51.3 nM. On to `Cc1ccc2[nH]c(CNc3nn(C4CCN(C)CC4)c4nc(C5CC5)cnc34)nc2c1` [Example 6, 6-cyclopropyl-N-[(5-methyl-1H-benzimidazol-2-yl)methyl]-1-(1-methylpiperidin-4-yl)-1H-pyrazolo[3,4-b]pyrazin-3-amine], for which, at CYCLIN K, the DC50 is 0.263 nM. Turning to `CN1CCC(n2nc(NCc3nc4c(C(F)(F)F)cccc4[nH]3)c3ncc(C4CC4)nc32)CC1` [Example 7, 6-cyclopropyl-1-(1-methylpiperidin-4-yl)-N-{[4-(trifluoromethyl)-1H-benzimidazol-2-yl]methyl}-1H-pyrazolo[3,4-b]pyrazin-3-amine], on CYCLIN K, the DC50 is 2.62 nM. Besides, the IC50 in test [1] (Homo sapiens, MDA-MB-231, 96 h) was 39.1 nM. The corresponding values for `Cc1cccc2[nH]c(CNc3nn(C4CCN(C)CC4)c4nc(C5CC5)cnc34)nc12` [Example 8, 6-cyclopropyl-N-[(4-methyl-1H-benzimidazol-2-yl)methyl]-1-(1-methylpiperidin-4-yl)-1H-pyrazolo[3,4-b]pyrazin-3-amine] are 6.22 nM and 39.6 nM. Turning to `c1ccc2[nH]c(CNc3nn(C4CCNCC4)c4nc(C5CC5)cnc34)nc2c1` [Example 12, N-[(1H-benzimidazol-2-yl)methyl]-6-cyclopropyl-1-(piperidin-4-yl)-1H-pyrazolo[3,4-b]pyrazin-3-amine], the DC50 at CYCLIN K was 2.16 nM. Also, the IC50 in test [1] (Homo sapiens, MDA-MB-231, 96 h) turned out to be 38.3 nM. In the case of `O[C@H]1CC[C@@H](n2nc(NCc3nc4ccccc4[nH]3)c3ncc(C4CC4)nc32)CC1` [Example 51, cis-4-(3-{[(1H-benzimidazol-2-yl)methyl]amino}-6-cyclopropyl-1H-pyrazolo[3,4-b]pyrazin-1-yl)cyclohexan-1-ol], the DC50 on CYCLIN K stood at 4.46 nM.

On to `CC1(C)CC(n2nc(NCc3nc4ccccc4[nH]3)c3ncc(C4CC4)nc32)CC(C)(C)O1` [Example 52, N-[(1H-benzimidazol-2-yl)methyl]-6-cyclopropyl-1-(2,2,6,6-tetramethyloxan-4-yl)-1H-pyrazolo[3,4-b]pyrazin-3-amine], for which the DC50 on CYCLIN K is 92.6 nM.

`c1ccc2[nH]c(CNc3nn(C4CC5(COC5)C4)c4nc(C5CC5)cnc34)nc2c1` [Example 54, N-[(1H-benzimidazol-2-yl)methyl]-6-cyclopropyl-1-(2-oxaspiro[3.3]heptan-6-yl)-1H-pyrazolo[3,4-b]pyrazin-3-amine]: the DC50 on CYCLIN K came out at 3.31 nM. On the same count and under the same terms, in the case of `c1ccc2[nH]c(CNc3nn(C4COC4)c4nc(C5CC5)cnc34)nc2c1` [Example 55, N-[(1H-benzimidazol-2-yl)methyl]-6-cyclopropyl-1-(oxetan-3-yl)-1H-pyrazolo[3,4-b]pyrazin-3-amine] it was 12.5 nM; in that of `O[C@H]1CC[C@H](n2nc(NCc3nc4cc(F)ccc4[nH]3)c3ncc(C4CC4)nc32)CC1` [Example 56, trans-4-(6-cyclopropyl-3-{[(5-fluoro-1H-benzimidazol-2-yl)methyl]amino}-1H-pyrazolo[3,4-b]pyrazin-1-yl)cyclohexan-1-ol], 1.28 nM.
